Test results as given in US20180015170A1, “CYCLODEXTRIN-BASED POLYMERS FOR THERAPEUTIC DELIVERY” (CERULEAN PHARMA INC., priority 2012, published 2018).
Values joined by “and” are separate entries in the source; they are usually repeats but may differ in a detail not shown here. Equal values may be shown once.

What was measured:
[1] = test system: B16.F10 cells; experiment: Efficacy of CDP-docetaxel nanoparticles in a murine melanoma model; format: in vivo, male C57BL/6 mice
Protocol: (§1) Animals were monitored for any morbidity and adverse effect three times a week.
Tumor volume was calculated with a (width×width×length)/2 mm^3 formula.

[2] = Tolerability (body weight) in the B16.F10 murine melanoma model
Protocol: as §1
Health monitoring was conducted three times a week to evaluate lethargy, tremors, hypothermia, ataxia, hind limb paralysis etc. The criteria at which a mouse was removed from the study were >20% body weight loss or severe morbidity or hind limb paralysis.

[3] = 15 mg/kg IV, weekly schedule for 3 injections
[4] = 30 mg/kg IV, weekly schedule for 3 injections (sections 1.4, 2.3, 4.2, 5.2)

Substance	day on which the mean tumor volume endpoint (≧3000 mm^3) was reached ([1]; mouse, in vivo)	day on which the mean tumor volume endpoint (≧3000 mm^3) was reached [1, 3] [days]	Tumor growth delay (TGD) [1, 3] [days]	increase in TGD [1, 3] [%]	Tumor growth delay (TGD) [1, 4] [days]	day on which the mean tumor volume endpoint (≧3000 mm^3) was reached [1, 4] [days]	increase in TGD [1, 4] [%]	Maximum body weight loss (%) [2, 3]	Maximum body weight loss (%) [2, 4]
CDP-2′-alanine glycolate-docetaxel [CDP-Ala Gly-DTX formulation]	43 days and 33 days and 29 days	–	–	–	–	–	–	–	–
CDP-2′-aminoethoxyethoxy-Docetaxel [CDP-aminoethoxyethoxy-DTX formulation]	–	33	–	–	–	–	–	–	–
CDP-dithiolethyloxy-carbonate-docetaxel [CDP-ethane-S-S-ethane-DTX formulation]	–	21	2	11	5	24	26	did not cause any body weight loss	did not cause any significant body weight loss
